Measurements taken from publication PMC8132342, “Antimalarial properties and molecular docking analysis of compounds from Dioscorea bulbifera L. as new antimalarial agent candidates” (BMC Complementary Medicine and Therapies, 2021).
Read-outs that look alike come from different tables or passages of the source.

How the values were obtained:
[1] = In vitro cytotoxicity, MTT assay; assay type: cell-based; conditions: African green monkey
Method: The toxicity of D. bulbifera extracts and isolated compounds was assessed by 3-(4,5-dimethythiazol-2-yl)-2,5-diphenyl tetrazolium bromide (MTT) assay according to a previous method. Briefly, Vero cells (Elabscience, Wuhan, Hubei, China) were seeded into 96-well plates at a density of 10^4 cell/ml and incubated for 24 h at 37 °C with 5% CO2. Cells were then treated with various concentrations of extracts and compounds for 48 h at 37 °C with 5% CO2. Doxorubicin (Sigma-Aldrich, New Delhi, India) was used as a toxic control. Subsequently, MTT solution was added to each well, and the plate was incubated for 2 h in a CO2 incubator. The medium was then removed, and 100 μl of DMSO was added to each well. Finally, the optical density was determined at a wavelength of 590 nm using a microplate reader. The assay was performed in duplicate.

[2] = system: CQ-sensitive P. falciparum (3D7 strain); test: Antimalarial activity, 3H-hypoxanthine uptake inhibition, 3D7 strain; assay type: cell-based; conditions: Plasmodium falciparum
Method: (§1) The culture of P. falciparum malaria parasites was continuously performed using standard methods with some modifications. RPMI-1640 medium was supplemented with noninfected type O-positive red blood cells (2% hematocrit), 2 mg/ml sodium bicarbonate, 10 μg/ml hypoxanthine (Sigma-Aldrich, New Delhi, India), 4.8 mg/ml HEPES (Himedia, Mumbai, India), 10% human AB serum and 2.5 μg/ml gentamicin (Sigma-Aldrich, New Delhi, India).
(§2) Antimalarial activity of extracts and compounds from D. bulbifera against P. falciparum K1 and 3D7 strains were assessed by measuring ^3H-hypoxanthine incorporated in parasite nucleic acids using the modified technique of Desjadins et al.. The red cell suspension at 1–2% hematocrit containing 1% ring stage P. falciparum-infected red blood cells was incubated with various concentrations of extracts (2.50–80 μg/ml) and pure compounds (2.5–80 μM) in 96-well culture plates. Parasites were incubated at 37 °C for 24 h, then ^3H-hypoxanthine (25 μl of 0.025 μCi/μl) was added to each well, and the plates were maintained under conditions of 93% N2, 3% O2 and 4% CO2 at 37 °C for an additional 24 h. The samples were transferred to a glass fiber filter (Wallac, Turku, Finland). ^3H-Hypoxanthine uptake was then assessed using a MicroBeta TriLux Liquid Scintillation Counter (PerkinElmer, USA). Each assay condition was performed in triplicate independently. The concentration of samples that inhibited the uptake of ^3H-hypoxanthine by 50% (IC50) assessed by log dose response curve using WinNonlin software version 4.1 (Pharsight Corporation, CA) was used as a marker of antimalarial effect potency.

[3] = system: chloroquine (CQ)-resistant P. falciparum (K1 strain); test: Antimalarial activity, 3H-hypoxanthine uptake inhibition, K1 strain; assay type: cell-based, Plasmodium falciparum
Method: as §1, §2

[4] = pure compounds, P. falciparum 3D7 strain, mean ± S.D. of three determinations, read-out: IC50 3D7
[5] = Plasmodium falciparum, K1, pure compounds, P. falciparum K1 strain, mean ± S.D. of three determinations, read-out: IC50 K1
[6] = Vero cells, MTT, 48 h, read-out: CC50

SMILES	IC50 [2, 4] [µM]	IC50 [3, 5] [µM]	CC50 at 48 h [1, 6] [µM]	other results
CCC(C(C)C)C(C)CC(C)C1CCC2C3C=CC4CC(OC5OC(CO)C(O)C(O)C5O)CCC4(C)C3CCC12C (stereo not drawn) [Compound 3]	> 80	> 80		CC50 at 48 h [1]: > 80 µM
O=c1c(O[C@@H]2O[C@H](CO)[C@@H](O)[C@H](O)[C@H]2O)c(-c2ccc(O)c(O)c2)oc2cc(O)cc(O)c12 [Compound 13, quercetin-3-O-β-D-glucopyranoside]	> 80	> 80	> 80	
NC(=O)NC1NC(=O)NC1=O (stereo not drawn) [Compound 8, allantoin]	> 80	> 80	> 80	
O=c1c(O)c(-c2ccc(O)cc2)oc2cc(O)cc(O)c12 [Compound 7, kaempferol]	> 80	62.5 ± 1.33	> 80	
O=c1c(O)c(-c2cc(O)c(O)c(O)c2)oc2cc(O)cc(O)c12 [Compound 11, myricetin]	> 80	> 80	> 80	
CCN(CC)CCCC(C)Nc1ccnc2cc(Cl)ccc12 (stereo not drawn) [Chloroquine, chloroquine, reference compound]				IC50 ([2]; 3D7, read-out: IC50 3D7): 0.00991 ± 0.00056 µM; IC50 ([3]; Plasmodium falciparum, K1, read-out: IC50 K1): 0.103 ± 0.0045 µM
O=c1c(O)c(-c2ccc(O)c(O)c2)oc2cc(O)cc(O)c12 [Compound 6, quercetin]	51 ± 7.28	28.5 ± 0.9	> 80	fold higher activity than 3,5-dimethoxyquercetin (4) ([3]; K1 strain): approximately 1.5 fold; fold higher activity than quercetin-3-O-β-D-galactopyranoside (14) ([3]; K1 strain): ~2 fold; inhibition at 80 µM ([3]; Plasmodium falciparum, at a concentration of 80 μM, K1 strain): 97%
Oc1cc(O)c2c(c1)CCc1cc(O)c(O)cc1-2 [Compound 10, 2,4,6,7-tetrahydroxy-9,10-dihydrophenanthrene]	> 80	58.3 ± 1.96	> 80	
Oc1cc(O)c2c(c1)O[C@H](c1ccc(O)c(O)c1)[C@@H](O)C2 [Compound 5, (+)-catechin]	> 80	> 80	> 80	
COc1cccc2c1C(=O)c1c(O)c3c(c(O)c1C2=O)C[C@@](O)(C(=O)CO)C[C@@H]3O[C@H]1C[C@H](N)[C@H](O)[C@H](C)O1 [Doxorubicin, reference compound]			1.96 ± 0.11	
Oc1cc(O)cc(CCc2ccc(O)cc2O)c1 [Compound 9, 2,4,3′,5′-tetrahydroxybibenzyl]	58.9 ± 4.31	40 ± 2.5		CC50 at 48 h [1]: 16.7 µM
O=c1c(O[C@@H]2O[C@H](CO)[C@H](O)[C@H](O)[C@H]2O)c(-c2ccc(O)c(O)c2)oc2cc(O)cc(O)c12 [Compound 14, quercetin-3-O-β-D-galactopyranoside]	68.9 ± 4.31	48.9	> 80	IC50 ([3]; pure compounds, P. falciparum K1 strain, mean ± S.D. of three determinations, read-out: IC50 K1): 48.3 ± 1.21 µM
COc1c(-c2ccc(O)c(O)c2)oc2cc(O)cc(OC)c2c1=O [Compound 4, 3,5-dimethoxy quercetin]	70.8 ± 2.32	44 ± 1.47	> 80	
CC(=O)OC1CC2C(=O)OC(c3ccoc3)CC2(C)C2CC3CC(C(=O)O3)C12 (stereo not drawn) [Compound 1, 8-epidiosbulbin E acetate]	> 80	> 80	> 80	
CC(=O)OC1CC2(O)C(=O)OC(c3ccoc3)CC2(C)C2CC3CC(C(=O)O3)C12 (stereo not drawn) [Compound 2, 15,16-epoxy-6α-O-acetyl-8β-hydroxy-19-nor-clero-13(16),14-diene-17,12;18,2-diolide]	> 80	> 80	> 80	
C[C@H]1[C@H](OC(=O)CCC(=O)O)O[C@@H]2O[C@@]3(C)CC[C@H]4[C@H](C)CC[C@@H]1[C@@]24OO3 [Artesunate, artesunate, reference compound]				IC50 ([2]; positive controls (footnote d), P. falciparum 3D7 strain, read-out: IC50 3D7): 0.00181 ± 0.00019 µM; IC50 ([3]; Plasmodium falciparum, K1, positive controls (footnote d), P. falciparum K1 strain, read-out: IC50 K1): 0.00053 ± 4e-05 µM
